Test results: PMC7910569 (Scientific Data, 2021)
Read-outs that look alike come from different tables or passages of the source.

Experiments:
MERS-CoV [1] = settings: BHK-21; read-out: Reports MERS (Vero-6, Calu-3 or BHK21) IC50; cited from earlier work
SARS-CoV-2 [2] = format: cell-based; settings: 10 µM
Protocol: For the primary screen, the final compound concentration was 10 µM (in 0.1% DMSO) and each compound was tested in singlicate. Concentration-response profiling of primary hits was performed in triplicate with eight concentrations ranging from 20 µM to 20 nM (half-log dilution factor, 0.1% DMSO final). For initial dose response studies, compounds were tested on three different plates to minimise the influence of plate effects. Later dose response studies at lower concentrations were also done on the same plate. Following the addition of compounds, cells were immediately infected with SARS-CoV-2 at a multiplicity of infection (MOI) of 0.01. Positive controls were prepared with the virus but no compounds, and negative controls were prepared without the virus. After 48 h, the medium was removed and cells were fixed in 3% paraformaldehyde in phosphate-buffered saline (PBS). The plates were sealed and disinfected to inactivate the virus[13] then screened by high-content imaging using the Operetta CLS platform (PerkinElmer). The image data were processed as described below and deposited on the Image Data Resource[14].
Images were acquired using a 10× objective with nine imaged fields per well in label-free mode by digital phase contrast (DPC). […] This method improves the signal-to-noise ratio and allows for image segmentation and single-cell analysis. The images were analysed using PerkinElmer Columbus v2.9.0. The analysis sequence started with cell detection (method c, common threshold 0.05, area >100 µm^2, splitting coefficient 6.5, individual threshold 0.05, contrast >0.05) and was followed by calculating morphology, intensity and position properties as well as cell confluence (Fig. 2). The data were deposited on the Image Data Resource[14]. Although we used cell confluence as a read out parameter additional parameters were calculated and deposited as well. These parameters can be used for further analysis to include parameters related to cellular stress or cytoskeletal impairment, both critical for viral replication. Well-level data were analysed in ActivityBase (IDBS) and R v3.6.1, using cell confluence as final read out parameter. […] Outliers were eliminated according to the three-sigma method. Plate-level statistical performance was assessed using the Z’factor calculation with values between 0.35 and 1.0 representing an acceptable assay. Data for the primary screen were deposited on ChEMBL[17].Concentration-response curves were fitted in GraphPad Prism v8.0.0 (GraphPad Software) using a four-parameter […] (least squares fit). Data for the dose-response screen were deposited on ChEMBL[18].
Cytopathicity assays were conducted in 96 well Cellstar plates (Greiner bio-one) using 4 wells with cells without virus (negative control) and 4 wells with cells and with virus (positive control). A three-sigma invalidation was performed on the raw data of the controls on each plate, resulting in maximal one invalidated well per plate during primary screening. During hit confirmation and dose-response studies no wells were eliminated as all wells were within three-sigma. After invalidation the plate specific z’factor was calculated and the plate was removed if quality criteria (z’factor > 0.35) were not met. Plates passing quality control were analysed and normalized as specified above. Hits were identified by having at least 75% efficiency in blocking viral cytopathicity at 10 µM.

SARS-CoV-2 [3] = settings: Vero-E6, read-out: Reports SARS-CoV-2 (Vero-E6) IC50, cited from earlier work
SARS-CoV [4] = settings: read-out: Reports SARS-CoV (Vero-E6) IC50, cited from earlier work
MERS-CoV [5] = settings: cited from earlier work
SARS-CoV-2 [6] = settings: for anti-cytopathic activity against SARS-CoV-2 (in words): Caco-2, hits / concentration-response screen; for inhibition of cytopathicity in the concentration-response screen: Caco-2, compound concentrations of up to 20 µM
in vitro = settings: human, Caco-2
SARS-CoV-2 [7] = assay: microbe, parasite or virus in culture; settings: Severe acute respiratory syndrome coronavirus 2, Caco-2, 48 h, read-out: Results SARS-CoV-2 (Caco-2) IC50
SARS-CoV [8] = settings: Calu-3; read-out: Reports SARS-CoV (Vero-E6 or Calu-3) IC50; cited from earlier work
MERS-CoV [9] = settings: Calu-3; read-out: Reports MERS (Vero-6, Calu-3 or BHK21) IC50; cited from earlier work
[10] = singlicate, Caco-2, 48 h, hit = at least 75% inhibition of cytopathicity
[11] = Vero-E6, ref 53, read-out: Reports MERS (Vero-E6) IC50

Compound: COc1ccc(Cc2nccc3cc(OC)c(OC)cc23)cc1OC [papaverine]
- IC50 (MERS-CoV [1]): 9.45 µM

Compound: CC(C)CN(C[C@@H](O)[C@H](Cc1ccccc1)NC(=O)O[C@H]1CO[C@H]2OCC[C@H]21)S(=O)(=O)c1ccc(N)cc1 [darunavir]
- activity in the primary screen (in words) (SARS-CoV-2 [2]; [10]): inactive

Compound: CCN(CC)Cc1cc(Nc2ccnc3cc(Cl)ccc23)ccc1O [amodiaquine]
- activity in the primary screen (in words) (SARS-CoV-2 [2]; [10]): inactive

Compound: C[C@H](CS)C(=O)N1CCC[C@H]1C(=O)O [captopril]
- activity in the primary screen (in words) (SARS-CoV-2 [2]; [10]): did not identify

Compound: OC(c1cc(C(F)(F)F)nc2c(C(F)(F)F)cccc12)C1CCCCN1 (stereo not drawn) [mefloquine]
- activity in the primary screen (in words) (SARS-CoV-2 [2]; [10]): identified in the primary screen
- IC50 (SARS-CoV-2 [3]; ref 23): 4.33 µM
- IC50 (SARS-CoV-2 [3]; ref 55): 8.06 µM
- IC50 (SARS-CoV [4]; Vero-E6, ref 53): 7.41 µM
- IC50 (MERS-CoV [5]; [11]): 15.5 µM

Compound: CC[C@H]1CN2CCc3cc(OC)c(OC)cc3[C@@H]2C[C@@H]1C[C@H]1NCCc2cc(OC)c(OC)cc21 [emetine]
- CI (cytotoxicity index) (SARS-CoV-2 [6]; human): 2
- IC50 (SARS-CoV [4]; Vero-E6, ref 53): 0.051 µM
- IC50 (MERS-CoV [5]; Vero-E6, ref 54, read-out: Reports MERS (Vero-E6) IC50): 0.08 µM
- CC50 (in vitro): 1.13 ± 0.5 µM
- IC50 (SARS-CoV-2 [7]): 0.52 ± 0.09 µM

Compound: COc1cc(NC(C)CCCN)c2ncccc2c1 (stereo not drawn) [primaquine]
- activity in the primary screen (in words) (SARS-CoV-2 [2]; [10]): inactive

Compound: CN(C)C(=O)COC(=O)Cc1ccc(OC(=O)c2ccc(NC(=N)N)cc2)cc1 [camostat]
- IC50 (SARS-CoV-2 [3]; ref 23): > 50 µM
- IC50 (SARS-CoV-2 [3]; ref 24): 1 µM
- IC50 (SARS-CoV [8]): ~1 µM
- IC50 (MERS-CoV [9]): 1 µM
- IC50 (SARS-CoV-2 [7]): < 1 µM

Compound: Cc1cccc(C)c1OCC(=O)N[C@@H](Cc1ccccc1)[C@@H](O)C[C@H](Cc1ccccc1)NC(=O)[C@H](C(C)C)N1CCCNC1=O [lopinavir]
- anti-cytopathic activity against SARS-CoV-2 (in words) (SARS-CoV-2 [6]): active at the highest concentration
- IC50 (SARS-CoV-2 [3]; ref 23): 9.12 µM
- Reports MERS (Vero-6, Calu-3 or BHK21) IC50 (MERS-CoV [5]; Vero-E6, ref 57, 58): not active
- IC50 (MERS-CoV [5]; Vero-E6, ref 57, 58, read-out: Reports MERS (Vero-6, Calu-3 or BHK21) IC50): 8 µM

Compound: Nc1nc2c(ncn2[C@@H]2O[C@H](CO)[C@@H](O)[C@H]2O)c(=S)[nH]1 [thioguanosine]
- CI (cytotoxicity index) (SARS-CoV-2 [6]; printed as CI = IC50/CC50, Caco-2 toxicity versus SARS-CoV-2 anti-cytopathic effect): < 3
- IC50 (SARS-CoV-2 [7]): 0.78 µM

Compound: Cc1cccc2c1CC[C@H](CN1CCC(c3c(Cl)cccc3Cl)CC1)C[C@@H]2O [SB-612111]
- IC50 (SARS-CoV-2 [7]): 0.77 µM

Compound: COc1ccc2nc3cc(Cl)ccc3c(Nc3cc(CN4CCCC4)c(O)c(CN4CCCC4)c3)c2n1 [pyronaridine]
- activity in the primary screen (in words) (SARS-CoV-2 [2]; [10]): inactive
- inhibition of cytopathicity in the concentration-response screen (SARS-CoV-2 [6]): < 50%

Compound: C[C@@H]1C[C@@H]([C@H](O)CC2CC(=O)NC(=O)C2)C(=O)[C@@H](C)C1 [cycloheximide]
- IC50 (SARS-CoV [4]): 0.043 µM
- IC50 (MERS-CoV [5]; read-out: Reports MERS (Vero-E6) IC50): 0.16 µM
- CC50 at 48 h (in vitro): > 20 µM
- IC50 (SARS-CoV-2 [7]): 0.58 ± 0.02 µM

Compound: CCN(CCO)CCCC(C)Nc1ccnc2cc(Cl)ccc12 (stereo not drawn) [hydroxychloroquine]
- activity in the primary screen (in words) (SARS-CoV-2 [2]; [10]): inactive

Compound: CNS(=O)(=O)Nc1nccc(Cc2c(C)c3ccc(Oc4ncccn4)cc3oc2=O)c1F [RO5126766]
- CC50 (in vitro): > 20 µM
- IC50 (SARS-CoV-2 [7]): 18.2 µM

Compound: CCN(CC)CCCC(C)Nc1ccnc2cc(Cl)ccc12 (stereo not drawn) [chloroquine diphosphate]
- activity in the primary screen (in words) (SARS-CoV-2 [2]; 48 h): inactive

Compound: O[C@@H](COc1cccc2ncccc12)CN1CCN([C@@H]2c3ccccc3[C@@H]3[C@H](c4ccccc42)C3(F)F)CC1 [LY335979, zosuquidar]
- anti-cytopathic activity against SARS-CoV-2 (in words) (SARS-CoV-2 [6]): identified

Compound: N=C(N)c1ccc2cc(OC(=O)c3ccc(N=C(N)N)cc3)ccc2c1 [nafamostat]
- potency against SARS-CoV-2 in Caco-2 cell assay relative to previous studies using Vero-E6 cells (SARS-CoV-2 [6]; comparison with refs 27, 28): > 500 fold
- IC50 (SARS-CoV-2 [3]; ref 27, 28): 22.5 µM
- IC50 (MERS-CoV [9]): 0.1 µM

Compound: CC(C)c1nc(CN(C)C(=O)N[C@H](C(=O)N[C@@H](Cc2ccccc2)C[C@H](O)[C@H](Cc2ccccc2)NC(=O)OCc2cncs2)C(C)C)cs1 [ritonavir]
- activity in the primary screen (in words) (SARS-CoV-2 [2]; 48 h): inactive

Compound: CCCCN(CCCC)CC(O)c1cc(Cl)cc2c1-c1ccc(Cl)cc1/C2=C/c1ccc(Cl)cc1 (stereo not drawn) [lumefantrine]
- activity in the primary screen (in words) (SARS-CoV-2 [2]; [10]): inactive

Compound: COC(=O)C[C@](O)(CCCC(C)(C)O)C(=O)O[C@@H]1C(OC)=C[C@]23CCCN2CCc2cc4c(cc2[C@H]13)OCO4 [homo-harringtonine]
- anti-cytopathic activity against SARS-CoV-2 (in words) (SARS-CoV-2 [6]): identified

Compound: NS(=O)(=O)OC[C@@H]1C[C@@H](n2ccc3c(N[C@H]4CCc5ccccc54)ncnc32)C[C@@H]1O [pevonedistat]
- IC50 (SARS-CoV-2 [7]): < 1 µM

Compound: CCC(CC)COC(=O)[C@H](C)N[P@](=O)(OC[C@H]1O[C@@](C#N)(c2ccc3c(N)ncnn23)[C@H](O)[C@@H]1O)Oc1ccccc1 [remdesivir]
- IC50 (SARS-CoV [4]; Vero-E6, ref 22): 0.069 µM
- CC50 (in vitro): > 20 µM
- IC50 (SARS-CoV-2 [7]): 0.76 ± 0.18 µM

Compound: CC(=NNC(=S)N1CC2CCC(CC2)C1)c1ccccn1 [NSC319276]
- anti-cytopathic activity against SARS-CoV-2 (in words) (SARS-CoV-2 [6]): moderately potent

Compound: N#CC(c1ccnc(OCc2ccc(CN3CCOCC3)cc2)n1)c1nc2ccccc2s1 (stereo not drawn) [bentamapimod]
- CC50 at 48 h (in vitro): > 20 µM
- IC50 (SARS-CoV-2 [7]): 5.9 µM

Compound: COc1cc(C)c2c(Oc3cccc(C(F)(F)F)c3)c(OC)cc(NC(C)CCCN)c2n1 (stereo not drawn) [tafenoquine]
- activity in the primary screen (in words) (SARS-CoV-2 [2]; [10]): inactive
- inhibition of cytopathicity in the concentration-response screen (SARS-CoV-2 [6]): < 50%

Compound: C[C@@H]1CN(Cc2ccc(F)cc2)[C@@H](C)CN1C(=O)c1cc2c(C(=O)C(=O)N(C)C)cn(C)c2cc1Cl [talmapimod]
- CC50 (in vitro): > 20 µM
- IC50 (SARS-CoV-2 [7]): 9.6 µM

Compound: C=C(c1ccccc1OCc1cccc(Cl)c1)n1ccnc1 [cloconazole]
- IC50 (SARS-CoV-2 [6]; read-out: Results SARS-CoV-2 (Caco-2) IC50): ≥ 20 µM

Compound: CCN(CC)CCCC(C)Nc1ccnc2cc(Cl)ccc12 (stereo not drawn) [chloroquine]
- anti-cytopathic activity against SARS-CoV-2 (in words) (SARS-CoV-2 [6]): not observed
- IC50 (SARS-CoV-2 [3]; ref 22): 1.13 µM
- IC50 (SARS-CoV-2 [3]; ref 55): 46.8 µM
- IC50 (SARS-CoV [4]; Vero-E6, ref 56): 4.4 µM
- IC50 (MERS-CoV [5]; [11]): 6.28 µM
- IC50 (SARS-CoV-2 [7]): > 20 µM

Compound: Cc1c(C(=O)Nc2ccc(N3C[C@@H](C)O[C@@H](C)C3)nc2)cccc1-c1ccc(OC(F)(F)F)cc1 [LDE225]
- anti-cytopathic activity against SARS-CoV-2 (in words) (SARS-CoV-2 [6]): identified
